These results are taken from US4663344A, “Anti-inflammatory and analgesic 3-hydroxybenzo[b]thiophene derivatives, compositions, and method of use therefor” (Merck & Co., Inc., priority 1985, dated 1987).

A value given as a limit tells only on which side of the number the result lay.

The assay addresses T1, RBL Cell 5-Lipoxygenase (Rattus norvegicus, UniProt P12527).
T1 construct: RBL Cell 5-Lipoxygenase; endogenous in cells; host or cells: RBL cells
T1 sequence (P12527 1-673): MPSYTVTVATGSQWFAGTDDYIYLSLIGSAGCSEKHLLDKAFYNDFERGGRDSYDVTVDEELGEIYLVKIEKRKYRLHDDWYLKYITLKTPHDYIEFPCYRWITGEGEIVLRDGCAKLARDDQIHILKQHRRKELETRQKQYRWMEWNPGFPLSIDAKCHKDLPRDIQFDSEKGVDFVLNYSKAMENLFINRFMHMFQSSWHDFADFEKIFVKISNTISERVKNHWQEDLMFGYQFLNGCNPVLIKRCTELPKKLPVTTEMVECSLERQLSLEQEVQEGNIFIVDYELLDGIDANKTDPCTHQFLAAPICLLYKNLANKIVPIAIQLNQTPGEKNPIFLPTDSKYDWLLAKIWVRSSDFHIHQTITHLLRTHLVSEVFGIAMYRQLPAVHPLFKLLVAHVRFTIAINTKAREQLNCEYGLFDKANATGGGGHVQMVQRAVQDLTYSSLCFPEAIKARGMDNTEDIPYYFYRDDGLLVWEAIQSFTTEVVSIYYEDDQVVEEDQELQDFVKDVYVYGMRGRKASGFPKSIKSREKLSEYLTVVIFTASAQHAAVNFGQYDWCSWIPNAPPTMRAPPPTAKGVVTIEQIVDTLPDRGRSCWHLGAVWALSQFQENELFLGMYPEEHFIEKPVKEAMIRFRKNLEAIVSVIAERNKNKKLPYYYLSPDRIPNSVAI
In words: Inhibition of RBL Cell 5-Lipoxygenase. As to conditions: read-out: Percent Inhibition (conc.). The format is biochemical. The source says: Protocol published in R. W. Egan et al., "Advances in Prostaglandin, Thromboxane, and Leukotriene Research," Vol. 11 (edited by B. Samuelson et al., Raren Press, N.Y., 1983), p. 151.

`Oc1cccc2sc(-c3ccccc3)c(O)c12` [Example 8, 3,4-dihydroxy-2-phenylbenzo[b]thiophene]: the inhibition at 15 µM is over 95%.

Turning to `Oc1c(-c2ccccc2)sc2ccc(Cl)cc12` [Example 18, 5-Chloro-3-hydroxy-2-phenylbenzo[b]thiophene], the inhibition at 15 µM is over 95%.

Consider `CC(=O)Oc1c(CSc2nc(-c3ccccc3)c(-c3ccccc3)[nH]2)sc2ccccc12` [Example 25, 2-(3-acetoxybenzo[b]thien-2-ylmethyl)thio-4,5-diphenylimidazole], for which the inhibition at 22 µM was 52%. As to `CCCCc1sc2ccc(Cl)cc2c1OC(C)=O` [Example 1, 3-Acetoxy-2-Butyl-5-Chlorobenzo[b]thiophene], the inhibition at 15 µM is over 95%. Still for that read-out and setting: as for `CC(=O)Oc1c(Cc2ccccc2)sc2ccc(Cl)cc12` [Example 2, 3-Acetoxy-2-Benzyl-5-Chlorobenzo[b]thiophene], the figure is over 95%. The same measure, in the same setting: to `Oc1c(-c2cccc(C(F)(F)F)c2)sc2ccc(C(F)(F)F)cc12` [Example 11, 3-Hydroxy-5-Trifluoromethyl-2-(m-trifluoromethylphenyl)-Benzo[b]thiophene] belongs over 95%. For the molecule `COC(=O)CCc1sc2ccc(C(F)(F)F)cc2c1OC(C)=O` [Example 22], the inhibition at 0.06 µM (0.06 μM) was over 95%. `CC(=O)Oc1c(C=C(c2ccccc2)c2ccccc2)sc2ccc(C(F)(F)F)cc12` [Example 27, 2-(2,2-diphenylethenyl)-3-acetoxy-5-trifluoromethyl benzo[b]thiophene]: the inhibition at 22 µM turned out to be 95%. Turning to `COc1cccc2sc(-c3ccccc3)c(O)c12` [Example 6, 3-Hydroxy-4-Methoxy-2-Phenylbenzo[b]thiophene], the inhibition at 15 µM is over 95%. In the case of `CC(=O)Oc1c(-c2ccccc2)sc2ccc(C(F)(F)F)cc12` [Example 5, 3-Acetoxy-2-Phenyl-5-Trifluoromethylbenzo[b]thiophene], the inhibition at 15 µM is over 95%. Regarding `COc1ccc(-c2sc3ccc(C(F)(F)F)cc3c2O)cc1` [Example 15, 3-Hydroxy-2-(p-methoxyphenyl)-5-trifluoromethylbenzo[b]thiophene], the inhibition at 15 µM was over 95%. The same measure, in the same setting: to `Oc1c(-c2cccc(Cl)c2)sc2ccc(C(F)(F)F)cc12` [Example 12, 3-Hydroxy-2-(m-chlorophenyl)-5-trifluoromethyl-benzo[b]thiophene] belongs over 95%. As to `Cc1cccc(-c2sc3ccc(C(F)(F)F)cc3c2O)c1` [Example 16, 3-Hydroxy-2-(m-methylphenyl)-5-trifluoromethylbenzo[b]thiophene], the inhibition at 1 µM is over 95%.

Regarding `COC(=O)C=Cc1sc2ccccc2c1O` [Example 20, Methyl 3-(3-hydroxybenzo[b]thiophen-2-yl)acrylate], the inhibition at 3.6 µM (3.6 μM) came to 100%. Turning to `CC(=O)Oc1c(C)sc2ccc(C(F)(F)F)cc12` [Example 23, 2-Methyl-3-Acetoxy-5-trifluoromethylbenzo[b]thiophene], the inhibition at 0.4 µM (0.4 μM) came to 100%. With `Oc1c(-c2ccccc2)sc2ccc(C(F)(F)F)cc12` [Example 4, 3-Hydroxy-2-phenyl-5-trifluoromethylbenzo[b]thiophene], under “5 μM”, the inhibition at 5 µM is over 95%. As for `CC(=O)Oc1cccc2sc(-c3ccccc3)c(OC(C)=O)c12` [Example 7, 3,4-Diacetoxy-2-Phenylbenzo[b]thiophene], the inhibition at 1 µM was over 95%. With `COC(=O)C=Cc1sc2ccccc2c1OC(C)=O` [Example 21, Methyl 3(3-acetoxybenzo[b]thiophen-2-yl)acrylate], the inhibition at 0.036 µM (0.036 μM) was found to be 71%.

A word on the inhibition: it is the percentage by which the read-out fell short of the control.
